Results: patent US6653298B2, “Composition” (Sterix Limited, priority 2000, dated 2003)
Blank lines part the entries; values can stand above or below the compound they belong to.

Tests used:
angiogenesis = conditions: cited from earlier work
endothelial cell = conditions: cited from earlier work
[1] = tested on: Meth A sarcoma, B16 melanoma or MDA-MB-435 estrogen receptor negative (ER−) breast cancer cells; conditions: subcutaneous injection of Meth A sarcoma, B16 melanoma or MDA-MB-435 cells; cited from earlier work
tubulin = conditions: at high concentrations; cited from earlier work
microtubule = conditions: at high concentrations; cited from earlier work
E1-STS [2] = target: T1, E1-STS (Homo sapiens, UniProt P08842); conditions: cited from earlier work
T1 sequence (P08842 22-583): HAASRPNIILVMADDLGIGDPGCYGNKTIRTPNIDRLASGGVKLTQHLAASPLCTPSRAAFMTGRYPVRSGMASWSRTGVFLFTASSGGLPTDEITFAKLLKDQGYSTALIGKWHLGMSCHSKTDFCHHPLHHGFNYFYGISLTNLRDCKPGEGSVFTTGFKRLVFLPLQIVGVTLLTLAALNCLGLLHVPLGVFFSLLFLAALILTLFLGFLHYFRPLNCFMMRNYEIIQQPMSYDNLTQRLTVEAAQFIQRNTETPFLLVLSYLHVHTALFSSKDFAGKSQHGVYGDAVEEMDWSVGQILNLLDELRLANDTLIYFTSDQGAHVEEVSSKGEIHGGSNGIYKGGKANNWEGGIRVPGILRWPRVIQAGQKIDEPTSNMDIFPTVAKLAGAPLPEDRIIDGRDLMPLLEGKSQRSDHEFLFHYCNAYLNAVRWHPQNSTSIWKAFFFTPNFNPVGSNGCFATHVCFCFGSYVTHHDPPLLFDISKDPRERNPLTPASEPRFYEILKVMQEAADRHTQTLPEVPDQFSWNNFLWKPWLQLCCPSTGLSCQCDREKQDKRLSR

uterine growth = conditions: cited from earlier work
[3] = single oral dose 50 μg, FIG. 4; cited from earlier work
[4] = referring to antigonadotropic properties; cited from earlier work
rat liver DHA-STS = target: T2, rat liver DHA-STS (Rattus norvegicus, UniProt P15589); conditions: in vivo, administered either orally or subcutaneously; cited from earlier work
T2 construct: samples of liver tissue were obtained and oestrone sulphatase activity assayed; from tissue; host or cells: rat liver (after in vivo dosing)
T2 sequence (P15589 20-577): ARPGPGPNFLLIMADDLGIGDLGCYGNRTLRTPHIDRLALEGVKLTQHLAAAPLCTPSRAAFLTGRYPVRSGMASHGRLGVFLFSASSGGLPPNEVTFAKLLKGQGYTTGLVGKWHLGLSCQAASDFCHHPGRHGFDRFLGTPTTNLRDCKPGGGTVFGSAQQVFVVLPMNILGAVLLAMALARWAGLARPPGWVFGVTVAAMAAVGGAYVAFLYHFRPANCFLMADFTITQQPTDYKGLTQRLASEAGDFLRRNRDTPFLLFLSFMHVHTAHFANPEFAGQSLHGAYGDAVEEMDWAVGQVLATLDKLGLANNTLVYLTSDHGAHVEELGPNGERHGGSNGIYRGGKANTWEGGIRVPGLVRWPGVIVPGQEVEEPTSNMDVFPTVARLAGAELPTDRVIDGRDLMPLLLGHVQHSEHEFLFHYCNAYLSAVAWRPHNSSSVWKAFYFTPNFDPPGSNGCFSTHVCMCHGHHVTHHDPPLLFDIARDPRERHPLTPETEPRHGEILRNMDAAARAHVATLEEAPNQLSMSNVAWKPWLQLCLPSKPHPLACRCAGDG

E1-STS [5] = target: T1, E1-STS; set-up: endogenous in cells; host or cells: MCF-7; dose or concentration left out as unconfirmed; conditions: intact MCF-7 cells; cited from earlier work
[6] = target: T3, dehydroepiandrosterone sulphatase (DHA-STS) (Homo sapiens, UniProt P08842); conditions: cited from earlier work
T3 sequence (P08842 22-583): T1 sequence (P08842 22-583)

[7] = rats; cited from earlier work
[8] = Clinical pharmacokinetics after oral administration in postmenopausal women; assay type: in vivo, human
Experimental: Studies in the human were performed with oral administration of the compound in postmenopausal women. Several doses at single and multiple administration were evaluated. […] studies were performed with solutions in oily vehicles for parenteral administration. Oral treatment was performed with suspensions of cristalline J995 in aquaeous vehicle. Clinical studies were performed with amorphous drug substance galenically formulated with a mixture of conventional ingredients as capsules or tablets.

estrogen receptor [9] = assay: In vitro estrogen receptor binding / displacement of radiolabelled oestradiol
Experimental: (§1) Oestradiol Sulfamate (J995) was investigated with respect to its hormonal properties in vitro and in vivo. In vitro studies included the evaluation of its specific binding to oestrogen receptors using cytosolic preparations of uterine tissue of rats and mice and MCF-7 tumor cells. In vivo studies were performed on several animal species including intact and ovariectomised rats and cynomolgus monkeys. These species served for detailed pharmacodynamic and pharmacokinetic studies at parenteral and oral administration of the compound.

[10] = Distribution of compound in blood (erythrocyte binding)
estrogen receptor [11] = target: T4, estrogen receptor (Rattus norvegicus, UniProt P06211); assay: Specific binding of radiolabelled J995 to estrogen receptor of rats
T4 construct: using cytosolic preparations of uterine tissue of rats and mice and MCF-7 tumor cells; from tissue; host or cells: rat uterine cytosol
T4 sequence (P06211 1-600): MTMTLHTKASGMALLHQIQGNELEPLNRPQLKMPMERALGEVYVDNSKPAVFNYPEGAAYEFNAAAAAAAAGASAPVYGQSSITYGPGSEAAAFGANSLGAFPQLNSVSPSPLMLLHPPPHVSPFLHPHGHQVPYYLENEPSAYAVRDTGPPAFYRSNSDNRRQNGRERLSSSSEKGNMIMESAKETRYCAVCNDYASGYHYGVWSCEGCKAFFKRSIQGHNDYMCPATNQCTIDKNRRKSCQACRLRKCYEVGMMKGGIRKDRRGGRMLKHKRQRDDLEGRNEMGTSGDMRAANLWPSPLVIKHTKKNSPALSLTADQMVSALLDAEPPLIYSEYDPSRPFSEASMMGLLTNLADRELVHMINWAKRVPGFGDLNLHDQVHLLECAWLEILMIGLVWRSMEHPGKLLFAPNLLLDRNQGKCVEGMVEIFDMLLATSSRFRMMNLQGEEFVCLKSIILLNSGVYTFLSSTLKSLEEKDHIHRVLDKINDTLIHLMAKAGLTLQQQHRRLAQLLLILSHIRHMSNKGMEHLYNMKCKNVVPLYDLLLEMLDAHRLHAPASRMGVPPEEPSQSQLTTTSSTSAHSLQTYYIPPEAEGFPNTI
Experimental: as §1

estrogen receptor [12] = target: T5, estrogen receptor (Mus musculus, UniProt P19785); assay: Specific binding of radiolabelled J995 to estrogen receptor of mice
T5 construct: using cytosolic preparations of uterine tissue of rats and mice and MCF-7 tumor cells; from tissue; host or cells: mouse uterine cytosol
T5 sequence (P19785 1-599): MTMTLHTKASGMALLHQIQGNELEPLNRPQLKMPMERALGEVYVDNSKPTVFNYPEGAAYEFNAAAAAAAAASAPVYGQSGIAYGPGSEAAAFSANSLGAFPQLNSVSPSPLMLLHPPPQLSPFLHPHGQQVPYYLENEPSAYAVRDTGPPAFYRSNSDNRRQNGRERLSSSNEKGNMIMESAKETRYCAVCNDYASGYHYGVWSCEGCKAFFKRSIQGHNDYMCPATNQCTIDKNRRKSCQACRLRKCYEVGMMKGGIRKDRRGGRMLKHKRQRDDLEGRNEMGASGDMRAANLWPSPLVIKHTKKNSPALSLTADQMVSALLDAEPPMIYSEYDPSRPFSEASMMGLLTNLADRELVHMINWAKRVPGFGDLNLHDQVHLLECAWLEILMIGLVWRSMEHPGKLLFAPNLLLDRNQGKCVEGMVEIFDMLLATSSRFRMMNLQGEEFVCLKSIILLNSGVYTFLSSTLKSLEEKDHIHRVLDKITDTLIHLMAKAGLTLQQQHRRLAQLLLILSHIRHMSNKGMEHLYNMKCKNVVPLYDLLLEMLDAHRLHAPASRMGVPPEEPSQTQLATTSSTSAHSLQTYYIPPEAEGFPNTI
Experimental: as §1

estrogen receptor [13] = target: T6, estrogen receptor (Homo sapiens, UniProt P03372); assay: Specific binding of radiolabelled J995 to human estrogen receptor
T6 construct: using cytosolic preparations of uterine tissue of rats and mice and MCF-7 tumor cells; endogenous in cells; host or cells: MCF-7 cytosol
T6 sequence (P03372 1-595): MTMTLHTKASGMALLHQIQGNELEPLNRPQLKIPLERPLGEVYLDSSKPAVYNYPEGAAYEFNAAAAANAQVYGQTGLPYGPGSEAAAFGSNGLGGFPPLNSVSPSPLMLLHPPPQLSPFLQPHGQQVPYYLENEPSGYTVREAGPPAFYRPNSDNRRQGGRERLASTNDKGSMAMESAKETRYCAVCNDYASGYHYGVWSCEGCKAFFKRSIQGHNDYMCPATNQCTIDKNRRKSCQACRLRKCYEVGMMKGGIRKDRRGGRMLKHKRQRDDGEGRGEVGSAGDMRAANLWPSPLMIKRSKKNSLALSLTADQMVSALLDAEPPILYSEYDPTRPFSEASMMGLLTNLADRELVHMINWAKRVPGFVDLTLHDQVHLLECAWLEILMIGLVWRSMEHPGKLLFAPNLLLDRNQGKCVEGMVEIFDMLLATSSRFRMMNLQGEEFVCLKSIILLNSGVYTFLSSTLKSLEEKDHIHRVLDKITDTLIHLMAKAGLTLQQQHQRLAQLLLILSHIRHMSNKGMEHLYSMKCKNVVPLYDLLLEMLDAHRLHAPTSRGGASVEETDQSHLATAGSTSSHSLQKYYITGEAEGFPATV
Experimental: as §1

[14] = single oral dose of 0.5 mg, FIG. 11
[15] = single oral dose of 0.5 mg, over 5 days, FIG. 11

Compound: COc1cc2c(cc1O)CC[C@@H]1[C@@H]2CC[C@]2(C)[C@@H](O)CC[C@@H]12 [2-MeOE2, 2-methoxyoestradiol]
- in vitro angiogenesis (angiogenesis): inhibits
- endothelial cell proliferation and migration (endothelial cell): inhibits endothelial cell proliferation and migration
- growth of tumours in vivo [1]: inhibits the growth of tumours
- inhibition of colchicine binding to tubulin (tubulin): weak inhibitor of colchicine binding to tubulin
- microtubule polymerisation (microtubule): can inhibit microtubule polymerisation

Compound: COc1cc2c(cc1OS(N)(=O)=O)CC[C@@H]1[C@@H]2CC[C@]2(C)C(=O)CC[C@@H]12 [2-methoxyoestrone-3-O-sulphamate, reference compound]
- potency as steroid sulphatase inhibitor relative to EMATE (E1-STS [2]): equipotent with EMATE
- oestrogenicity (uterine growth; rat, in vivo): devoid of oestrogenicity

Compound: C#C[C@]1(O)CC[C@H]2[C@@H]3CCc4cc(O)ccc4[C@H]3CC[C@@]21C [EE, ethinyl estradiol]
- definition of blood levels (individual variation) [3]: does not lead to well defined blood levels
- oestrogenicity in the liver relative to orally applied natural estrogens [4]: 4 to 18 times

Compound: CC12CCC3c4ccc(OS(N)(=O)=O)cc4CCC3C1CCC2=O (stereo not drawn) [EMATE, oestrone-3-O-sulphamate]
- inhibition of rat liver DHA-STS activity (rat liver DHA-STS): 99%
- inhibition of E1-STS activity (E1-STS [5]): more than 99%
- manner of inhibition of the E1-STS enzyme (E1-STS [2]): time- and concentration-dependent manner
- inhibition of DHA-STS [6]: inhibits dehydroepiandrosterone sulphatase
- effect on memory [7]: memory enhancing effect
- oral uterotrophic activity relative to estradiol (uterine growth; rats, oral): 100 times

- factor by which metabolite oestrone sulphate stays lower than under Oestradiol Valerate treatment ([8]; FIG. 5: single oral 2 mg J995 vs multiple doses 2 mg E2V): ≥ 10
- constancy of blood levels of oestrogens ([8]; FIGS. 5-10): very constant, long lasting blood levels
- oestrone sulphate levels in wash out phase ([8]; after 14 days of 100 μg per day, wash out phase over 144 hours, FIG. 9): almost constant oestrone sulphate levels
- orally administered compound reaching the erythrocyte pool ([8]; oral): ~100%
- prodrug appearing as oestrone and oestradiol in the circulation ([8]; oral, FIG. 11): more than 50%
- total ES amount in blood [8, 14]: ≈ 500 μg/5 L blood
- total ES concentration per blood volume [8, 14]: ~100 μg/L blood
- total ES erythrocyte conc. [8, 14]: Ca. 200 ng/mL erythrocytes
- E1S plasma level [8, 15]: 700 pg/mL
- E1 plasma level [8, 15]: 40 pg/mL
- Clearance of E1S calculated (amount) ([8]; single oral dose of 0.5 mg, 110 l×700 ng/l/day): 385 μg/5 days
- Clearance of E1 calculated (amount) ([8]; single oral dose of 0.5 mg, 1870 l×40 ng/l/day): 374 μg/5 days
- affinity to the estrogen receptor (estrogen receptor [9]; in vitro): no affinity to the estrogen receptor
- amount circulating in the erythrocyte compartment [10]: 98-99%
- specific binding of radioactively labelled compound to estrogen receptor (estrogen receptor [11]): no specific binding
- specific binding of radioactively labelled compound to estrogen receptor (estrogen receptor [12]): no specific binding
- specific binding of radioactively labelled compound to estrogen receptor (estrogen receptor [13]): no specific binding
Compound: C[C@]12CC[C@@H]3c4ccc(OS(N)(=O)=O)cc4CC[C@H]3[C@@H]1CC[C@@H]2O [J995, oestradiol-3-sulphamate]
- oestradiol levels compared with Oestradiol Valerate at the same dose ([8]; FIGS. 6, 7): higher and much longer lasting oestradiol levels
- displacement of specifically bound radioactively labelled Oestradiol (estrogen receptor [9]; huge excess of J995): unable to displace specifically bound radioactively labelled Oestradiol

Compound: oestrone-3-N-sulphamate
- manner of inhibition of the E1-STS enzyme (E1-STS [2]): weaker non-time-dependent inactivators

Compound: oestrone-3-S-sulphamate
- manner of inhibition of the E1-STS enzyme (E1-STS [2]): weaker non-time-dependent inactivators
